In patent US10899758B2, “Inhibitors of the menin-MLL interaction” (Vitae Pharmaceuticals, LLC, priority 2016, dated 2021):

Key:
[1] = system: human acute monocytic leukemia cell line MV-4-11; experiment: Assay 2 (Cell Proliferation Assay), ATP quantitation (CellTiter-Glo); format: cell-based; settings: Homo sapiens, MV4-11, 72 h, MV-4-11 cells, read-out: Assay 2 (EC50, inhibition of cell proliferation)
Protocol: Potencies of inhibitor compounds against cell proliferation was assessed against the human acute monocytic leukemia cell line MV-4-11 (ATCC® CRL-9591™) based on ATP quantitation. MV-4-11 cells or toxicity control HL-60 cells (ATCC® CCL-240™) were incubated in 96-well tissue culture plates (1.67×10^4 cells in 200 μL culture media containing 10% FBS per well) with or without test compound for 72 h at 37° C., 5% CO2. After incubation, each well was mixed by pipetting and 95 μL from each well was transferred to a well in 96-well black OptiPlate® plates (PerkinElmer). An equal volume of CellTiter-Glo® Luminescent Cell Viability Assay reagent (Promega) was added to each well, followed by mixing for 5 min on an orbital plate shaker. Luminescence was measured on a Wallac EnVision 2104 Multilabel Reader (PerkinElmer) to quantitate ATP. Percent inhibition of cell proliferation by test compounds was calculated based on uninhibited cell growth (DMSO) versus cells treated with a potent menin inhibitor at a concentration yielding at least 100×LD50.

[2] = biological target: T1, menin/MLL binding (biotinylated wild-type or mutated menin and MLL-AF9 fusion protein) (Homo sapiens, UniProt O00255); experiment: Assay 1 (Binding Assay): AlphaLISA menin/MLL binding; settings: 5 nM biotinylated menin, MLL-AF9-FLAG lysate
T1 construct: biotinylated (1) wild-type menin or (2) mutated menin (described in Nature (2012) Vol. 482, pp. 542-548); fused on or other part: Biotin attached chemically (Sulfo-NHS-Biotin); no fused second protein is printed for menin
T1 sequence (O00255 1-459 limits assumed): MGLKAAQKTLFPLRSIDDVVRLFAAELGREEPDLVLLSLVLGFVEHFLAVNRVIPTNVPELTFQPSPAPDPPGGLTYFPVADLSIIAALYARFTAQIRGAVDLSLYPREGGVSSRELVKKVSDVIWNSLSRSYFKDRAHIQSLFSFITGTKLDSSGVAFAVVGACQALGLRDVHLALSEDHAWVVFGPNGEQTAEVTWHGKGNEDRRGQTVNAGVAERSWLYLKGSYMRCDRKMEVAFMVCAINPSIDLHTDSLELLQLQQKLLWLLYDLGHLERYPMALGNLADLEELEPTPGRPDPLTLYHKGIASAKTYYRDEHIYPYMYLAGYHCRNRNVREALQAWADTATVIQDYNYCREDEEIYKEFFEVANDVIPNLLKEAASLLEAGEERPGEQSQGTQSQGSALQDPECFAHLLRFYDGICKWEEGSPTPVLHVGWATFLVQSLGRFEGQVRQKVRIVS
In short: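 Biotinylated E. coli-expressed menin (wild-type or mutant), 5 nM, incubated 30 min RT with compound and HEK293 lysate of MLL1-1,396–AF9-FLAG in pH 7.4 Tris buffer, 5% DMSO, 1 mM DTT. Anti-FLAG acceptor and streptavidin donor beads added, 60 min RT, AlphaLISA signal read. IC50 from four-parameter fit of % inhibition.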

Row | SMILES | EC50 [1] [nM] | IC50 [2] [nM]
1 | CC(C)N(C)C(=O)c1cc(F)ccc1-n1cc(C2CCNC(Cc3ccccc3)C2)c2ccncc21 (centres unmarked) [Example 31, 2-(3-(2-benzylpiperidin-4-yl)-1H-pyrrolo[2,3-c]pyridin-1-yl)-5-fluoro-N-isopropyl-N-methylbenzamide] | < 100 | < 100
2 | CCN(C(=O)c1cc(F)ccc1-n1cc([C@@H]2CCCN(Cc3ccc4c(c3)[nH]c(=O)n4CCO)C2)c2ccncc21)C(C)C [Example 49A, (S)-N-ethyl-5-fluoro-2-(3-(1-((1-(2-hydroxyethyl)-2-oxo-2,3-dihydro-1H-benzo[d]imidazol-5-yl)methyl)piperidin-3-yl)-1H-pyrrolo[2,3-c]pyridin-1-yl)-N-isopropylbenzamide] | < 100 | < 100
3 | CC(C)N(C)C(=O)c1cc(F)ccc1-n1cc(C2CCN(Cc3ccc(Cl)cc3)CC2)c2ccncc21 [Example 10, 2-(3-(1-(4-chorobenzyl)piperidin-4-yl)-1H-pyrrolo[2,3-c]pyridin-1-yl)-5-fluoro-N-isopropyl-N-methylbenzamide] | 100 to 1000 | < 100
4 | CC(C)N(C(=O)c1cc(F)ccc1-n1cc(C2CN(CC[C@H]3CC[C@H](NC(=O)OC(C)(C)C)CC3)C2)c2ccncc21)C(C)C [Example 136, tert-butyl ((1r,4r)-4-(2-(3-(1-(2-(diisopropylcarbamoyl)-4-fluorophenyl)-1H-pyrrolo[2,3-c]pyridin-3-yl)azetidin-1-yl)ethyl)cyclohexyl)carbamate] | < 100 | < 100
5 | CCN(C(=O)c1cc(F)ccc1-n1cc(C2CCN(C[C@H]3CC[C@H](NS(C)(=O)=O)CC3)C2)c2ccncc21)C(C)C (stereo partly drawn) [Example 125, N-ethyl-5-fluoro-N-isopropyl-2-(3-(1-((trans-4-(methylsulfonamido)cyclohexyl)methyl)pyrrolidin-3-yl)-1H-pyrrolo[2,3-c]pyridin-1-yl)benzamide] | < 100 | < 100
6 | CNC(=O)c1cccc(CCN2CCC(c3cn(-c4ccc(F)cc4C(=O)N(C)C(C)C)c4cnccc34)CC2)c1 [Example 26, 5-fluoro-N-isopropyl-N-methyl-2-(3-(1-(3-(methylcarbamoyl)phenethyl)piperidin-4-yl)-1H-pyrrolo[2,3-c]pyridin-1-yl)benzamide] | 100 to 1000 | < 100
7 | CCN(C(=O)c1cc(F)ccc1-n1cc(C2CCN(Cc3ccccc3)CC2)c2ccncc21)C(C)C [Example 32, 2-(3-(1-benzylpiperidin-4-yl)-1H-pyrrolo[2,3-c]pyridin-1-yl)-N-ethyl-5-fluoro-N-isopropylbenzamide] | < 100 | < 100
8 | CC(C)N(C)C(=O)c1cc(F)ccc1-n1cc(C2CCCN(Cc3ccc4c(c3)[nH]c(=O)n4CCO)C2)c2ccncc21 (single isomer, unassigned) [Example 44B, 5-fluoro-2-(3-(1-((1-(2-hydroxyethyl)-2-oxo-2,3-dihydro-1H-benzo[d]imidazol-5-yl)methyl)piperidin-3-yl)-1H-pyrrolo[2,3-c]pyridin-1-yl)-N-isopropyl-N-methylbenzamide] | < 100 | < 100
9 | CC(C)N(C)C(=O)c1cc(F)ccc1-n1cc(C2CCN(CC[C@H]3CC[C@H](NC(=O)OC(C)(C)C)CC3)CC2)c2ccncc21 [Example 18A, tert-butyl (trans-4-(2-(4-(1-(4-fluoro-2-(isopropyl(methyl)carbamoyl)phenyl)-1H-pyrrolo[2,3-c]pyridin-3-yl)piperidin-1-yl)ethyl)cyclohexyl)carbamate] | 100 to 1000 | < 100
10 | Cc1c(CN2CCC(c3cn(-c4ccc(F)cc4)c4cnccc34)CC2)ccc2[nH]c(C#N)cc12 [Example 37, 5-((4-(1-(4-fluorophenyl)-1H-pyrrolo[2,3-c]pyridin-3-yl)piperidin-1-yl)methyl)-4-methyl-1H-indole-2-carbonitrile] | 100 to 1000 | < 100
